{"source": "patent US11512097B2", "about": "“Heterocyclic compounds as Delta-5 desaturase inhibitors and methods of use” (Amgen Inc., priority 2019, dated 2022)", "key": {"[1]": {"target": "T1, Delta-5-Desaturase (D5D) (Mus musculus, UniProt Q920L1)", "T1 construct": "tissue Jackson Laboratories strain #3800050; host or cells: whole animal (DIO mice)", "T1 sequence (Q920L1 1-447)": "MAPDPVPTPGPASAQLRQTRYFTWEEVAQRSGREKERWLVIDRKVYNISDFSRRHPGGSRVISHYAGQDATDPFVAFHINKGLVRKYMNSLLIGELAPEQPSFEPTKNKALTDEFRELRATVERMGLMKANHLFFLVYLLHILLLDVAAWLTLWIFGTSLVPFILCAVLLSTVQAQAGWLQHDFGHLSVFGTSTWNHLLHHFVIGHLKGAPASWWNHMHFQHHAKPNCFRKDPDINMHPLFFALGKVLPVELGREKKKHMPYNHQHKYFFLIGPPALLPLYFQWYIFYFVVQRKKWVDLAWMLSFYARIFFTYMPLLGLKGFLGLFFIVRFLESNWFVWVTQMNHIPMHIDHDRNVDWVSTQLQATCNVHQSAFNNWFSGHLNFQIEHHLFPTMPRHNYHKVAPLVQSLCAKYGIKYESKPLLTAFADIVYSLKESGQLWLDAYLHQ", "experiment": "In vivo measurement of Delta-5-Desaturase inhibitory activity (plasma AA/DGLA ratio in DIO mice)", "details": "single oral dose 30 mg/kg, relative to vehicle group", "protocol": "In Vivo Measurement of Delta-5-Desaturase Inhibitory Activity\nDiet-induced obese (DIO; Jackson Laboratories strain #[…]) mice were used to screen for pharmacodynamic (PD) activity of test compounds. Generally, 14 to 24 week old DIO mice, were administered test compounds formulated in the vehicle of 2% hydroxypropyl methylcellulose (HPMC) and 1% Tween80. Animals were dosed on body weight by oral gavage with a single dose (30 mg/kg) for PD studies. Necropsy included plasma collection for PUFA analysis. 10 μl of plasma or standards diluted in surrogate matrix (65 g/l bovine serum albumin in Dulbecco's phosphate-buffered saline) were mixed with 10 μl of an internal standard (100 μM alpha-linolenic acid-d14 (ALA-d14, Cayman Chemical)) in a 96 well plate. 100 μl of 2N NAOH was added to the mixture for subsequent saponification at 65° C. for 1 hour. The mixture was then acidified with 50 μl of formic acid followed by two consecutive hexane extractions. Hexane (500 μl) was added and the mixture thoroughly mixed by vortexing, followed by centrifugation at 4,000 rpm for 15 min. The hexane phase was transferred to a new 1 ml 96 well plate and the remaining aqueous layer was extracted with hexane. The organic extracts were combined and the solvent was removed by placing the plate under nitrogen gas at 55° C. 250 μl of 90% methanol was added to the plate followed by vortexing for 2 minutes. 200 μl of the samples were transferred to a new 96 well polypropylene plate. The samples were analyzed on a LC-MS/MS for the following PUFAs: arachidonic acid (AA), dihomo-gamma-linolenic acid (DGLA), with ALA-d14 as the internal standard. Description of the LC-MS/MS method: 5 μl of sample was injected onto a Poroshell 120 EC-C18 3.0×50 mm, 1.9 μm id column. […] The PUFA peak areas were quantified by using the SCIEX Analyst software. […] The relative decrease of the AA/DGLA ratio of the test compound administered group relative to the vehicle administered group was calculated and used as an index for the degree of D5D inhibition. […]"}, "[2]": {"test_system": "Diet-Induced Obese (DIO) mice", "experiment": "Assessment of D5D inhibitor in Diet-Induced Obese (DIO) mice", "assay_type": "in vivo, Male C57BL/6J DIO mice", "details": "for Fat mass / Lean mass: day 78, EchoMRI; for Blood glucose: day 81, non-fasted; for AA / DGLA: day 81, non-fasted plasma; for Body weight / Liver weights / epididymal WAT / inguinal WAT / mesenteric WAT: day 84; for Adiponectin / Cholesterol / Insulin / LDL cholesterol / Leptin / Resisten / Triglycerides: day 84, 4-hour fasted plasma", "description": "Assessment of D5D Inhibitor in Diet-Induced Obese (DIO) Mice\nMale C57BL/6J DIO mice (Jackson Laboratories, Stock No.: 380050) were fed high-fat diet (Research Diets, Inc., D12492) for 12 weeks. All animals were given free access to water and chow. Animals were acclimated to per os dosing for 3 days prior to the start of the experiment. Animals were randomized on body weight, fat mass, lean mass, and blood glucose concentrations in to groups of 8 to 10 animals per group. Animals were twice daily dosed per os with either: vehicle (2% hydroxypropyl methylcellulose and 1% tween 80 in water), Example 2 at 10 mg/kg, or 30 mg/kg (formulated in 2% hydroxypropyl methylcellulose and 1% tween 80 in water), or Example 45 at 3 mg/kg, or 10 mg/kg (formulated in 2% hydroxypropyl methylcellulose and 1% tween 80 in water). Three-day average (Example 2) or daily average (Example 45) food consumption was measured at the indicated times as shown in Table 17 and Table 18. Body composition (EchoMRI) was determined on day 78 for Example 2 and day 22 for Example 45. For Example 2, a non-fasted blood collection was performed on day 81; blood glucose was immediately measured, and plasma samples created from the remaining blood and used to measure DGLA and AA concentrations. On day 84, a 4-hour fasted blood collection was performed, and plasma samples were created from the blood and used to measure cholesterol, triglycerides, low-density lipoprotein (LDL) cholesterol, insulin, and adipokine (adiponectin, leptin, and resistin) levels. For Example 45, 4 hour fasted blood samples were collected on day 25 and blood glucose was measured immediately and the plasma samples created from the remaining blood were used to measure cholesterol, triglycerides, LDL cholesterol, insulin, DGLA and AA concentration. At the end of the studies, liver, epididymal white adipose tissue, inguinal white adipose tissue, mesenteric (only Example 2) white adipose tissue weights were recorded. Data was analyzed using GraphPad Prism v 7.04.\nThe D5D inhibitor dose-dependently led to weight loss over the course of the experiment (Table 17 and Table 18) compared to vehicle controls. Consistently fat mass was reduced, along with lower inguinal, epididymal and mesenteric white adipose tissue (WAT) weights at necropsy. Blood glucose and plasma insulin levels were both reduced by the D5D inhibitor, along with reductions in plasma cholesterol and triglycerides. Evidence of target engagement was established by observing increases in plasma DGLA and decreases in plasma AA."}, "[3]": {"details": "Example 2 10 mg/kg twice daily per os"}, "[4]": {"details": "Example 2 30 mg/kg twice daily per os"}}, "data": [{"compound": "Cc1nn2c(=O)c(-c3cnn(CC(F)(F)C(F)(F)F)c3)c(C(F)(F)F)nc2s1", "note": "[Example 2, 2-methyl-6-[1-(2,2,3,3,3-pentafluoropropyl)-1H-pyrazol-4-yl]-7-(trifluoromethyl)-5H-[1,3,4]thiadiazolo[3,2-a]pyrimidin-5-one]", "values": [{"measurement": "Average % D5D Inhibition expressed as Plasma Endogenous AA/DGLA Ratio", "setting": "[1]", "result": 66, "unit": "%"}, {"measurement": "Fat mass", "setting": "[2]; [3]", "result": "11.4 ± 0.6", "unit": "g"}, {"measurement": "Lean mass", "setting": "[2]; [3]", "result": "26.4 ± 0.6", "unit": "g"}, {"measurement": "Blood glucose", "setting": "[2]; [3]", "result": "165.3 ± 4.6", "unit": "mg/dL"}, {"measurement": "AA", "setting": "[2]; [3]", "result": "14.5 ± 0.9", "unit": "µg/mL"}, {"measurement": "DGLA", "setting": "[2]; [3]", "result": 167.8, "unit": "µg/mL"}, {"measurement": "Body weight", "setting": "[2]; [3]", "result": "38.1 ± 1.0", "unit": "g"}, {"measurement": "Liver weights", "setting": "[2]; [3]", "result": "3.0 ± 0.2", "unit": "g"}, {"measurement": "epididymal WAT", "setting": "[2]; [3]", "result": "1.2 ± 0.1", "unit": "g"}, {"measurement": "inguinal WAT", "setting": "[2]; [3]", "result": "1.2 ± 0.1", "unit": "g"}, {"measurement": "mesenteric WAT", "setting": "[2]; [3]", "result": "0.4 ± 0.0", "unit": "g"}, {"measurement": "Adiponectin", "setting": "[2]; [3]", "result": "48.3 ± 17.7", "unit": "ng/mL"}, {"measurement": "Cholesterol", "setting": "[2]; [3]", "result": "224.5 ± 7.3", "unit": "mg/dL"}, {"measurement": "Insulin", "setting": "[2]; [3]", "result": "1.8 ± 0.3", "unit": "ng/mL"}, {"measurement": "LDL cholesterol", "setting": "[2]; [3]", "result": "85.9 ± 3.8", "unit": "mg/dL"}, {"measurement": "Leptin", "setting": "[2]; [3]", "result": "10.7 ± 3.6", "unit": "ng/mL"}, {"measurement": "Resisten", "setting": "[2]; [3]", "result": "0.9 ± 0.2", "unit": "ng/mL"}, {"measurement": "Triglycerides", "setting": "[2]; [3]", "result": "14.3 ± 1.2", "unit": "mg/dL"}, {"measurement": "Food consumption", "setting": "[2]; Example 2 10 mg/kg twice daily per os, days 0-2, three-day average", "result": "2.5 ± 0.2", "unit": "g/day"}, {"measurement": "Food consumption", "setting": "[2]; Example 2 10 mg/kg twice daily per os, days 70-72, three-day average", "result": "2.5 ± 0.1", "unit": "g/day"}, {"measurement": "Fat mass", "setting": "[2]; [4]", "result": "5.7 ± 0.6", "unit": "g"}, {"measurement": "Lean mass", "setting": "[2]; [4]", "result": "26.1 ± 0.4", "unit": "g"}, {"measurement": "Blood glucose", "setting": "[2]; [4]", "result": 152.1, "unit": "mg/dL"}, {"measurement": "AA", "setting": "[2]; [4]", "result": "10.7 ± 0.6", "unit": "µg/mL"}, {"measurement": "DGLA", "setting": "[2]; [4]", "result": 137.7, "unit": "µg/mL"}, {"measurement": "Body weight", "setting": "[2]; [4]", "result": "32.3 ± 0.9", "unit": "g"}, {"measurement": "Liver weights", "setting": "[2]; [4]", "result": "3.2 ± 0.1", "unit": "g"}, {"measurement": "epididymal WAT", "setting": "[2]; [4]", "result": "0.75 ± 0.1", "unit": "g"}, {"measurement": "inguinal WAT", "setting": "[2]; [4]", "result": "0.5 ± 0.1", "unit": "g"}, {"measurement": "mesenteric WAT", "setting": "[2]; [4]", "result": "0.2 ± 0.0", "unit": "g"}, {"measurement": "Adiponectin", "setting": "[2]; [4]", "result": "51.0 ± 24.4", "unit": "ng/mL"}, {"measurement": "Cholesterol", "setting": "[2]; [4]", "result": 207.5, "unit": "mg/dL"}, {"measurement": "Insulin", "setting": "[2]; [4]", "result": "1.4 ± 0.2", "unit": "ng/mL"}, {"measurement": "LDL cholesterol", "setting": "[2]; [4]", "result": "80.6 ± 3.9", "unit": "mg/dL"}, {"measurement": "Leptin", "setting": "[2]; [4]", "result": "3.2 ± 1.6", "unit": "ng/mL"}, {"measurement": "Resisten", "setting": "[2]; [4]", "result": "0.7 ± 0.2", "unit": "ng/mL"}, {"measurement": "Triglycerides", "setting": "[2]; [4]", "result": "12.8 ± 1.0", "unit": "mg/dL"}, {"measurement": "Food consumption", "setting": "[2]; Example 2 30 mg/kg twice daily per os, days 0-2, three-day average", "result": "2.5 ± 0.2", "unit": "g/day"}, {"measurement": "Food consumption", "setting": "[2]; Example 2 30 mg/kg twice daily per os, days 70-72, three-day average", "result": "2.7 ± 0.1", "unit": "g/day"}]}]}
